Laboratory results as given in patent publication US9408385B2, “Pesticidal composition comprising a pyridylethylbenzamide derivative and an insecticide compound” (priority 2006, dated 2016).
“And” between values parts separate entries of the source, which are not always exact repeats. Equal values may be shown once. Read-outs that look alike come from different tables or passages of the source.

Tests used:
[1] = test system: Phaedon cochleariae larvae; assay: Efficacy against Phaedon cochleariae larvae, cabbage leaf dip test; settings: for mortality at 1 ppm: read-out: Mortality in % after 4d, dose 1 ppm
Myzus persicae = assay: Efficacy against Myzus persicae, cabbage leaf dip test; assay type: in vivo; settings: foliar
Source text: (§1) Solvent: 7 parts by weight of dimethylformamide

Gibberella zeae = assay type: cell-based; settings: dose 3 ppm; 4 days of incubation, optical density
Phytophthora cryptogea = assay: Efficacy against Phytophthora cryptogea (Test in vitro - Microtest); settings: dose 0.03 ppm; 4 days of incubation, optical density
Method: The microtest was performed in liquid medium with potato-dextrose broth (PDB) using microtitre plates.
A mycelium suspension of Phytophthora cryptogea was used for inoculation. After 4 days of incubation by darkness under shaking (10 Hrz), the optical density in each cavity was evaluated with the aid of a microtitre plate reader.

Aphis gossypii = assay: Efficacy against Aphis gossypii, cotton leaf dip test; assay type: in vivo; settings: foliar, 24 h, after 1 d
Source text: as §1

Pyricularia oryzae = assay type: cell-based; settings: dose 0.015 ppm; 3 days of incubation
[2] = Phaedon cochleariae, in Brassica oleracea, foliar, 96 h, read-out: Mortality in % after 4d, dose 4 ppm, after 4 d
[3] = Phaedon cochleariae, in Brassica oleracea, foliar, 144 h, read-out: Mortality in % after 6d, dose 4 ppm, after 6 d
[4] = 24 h, after 1 d, read-out: Mortality in % after 1d
[5] = 144 h, after 6 d, read-out: Mortality in % after 6d
[6] = Phaedon cochleariae, in Brassica oleracea, foliar, 144 h, read-out: Mortality in % after 6d, dose 200 ppm, after 6 d
[7] = Phaedon cochleariae, in Brassica oleracea, foliar, 96 h, after 4 d

Work on `CN/C(=N\[N+](=O)[O-])NCc1cnc(Cl)s1` [Clothianidin, clothianidin] yielded a mortality at 4 ppm [1, 2] of 60%, a mortality at 0.8 ppm ([1]; Phaedon cochleariae, in Brassica oleracea, foliar, 144 h, read-out: Mortality in % after 6d, dose 0.8 ppm, after 6 d) of 0% and a mortality at 4 ppm [1, 3] of 20%. The “Mortality in % after 6d” value ([1]; dose 4 ppm, after 6 d) was 40%, the mortality at 0.16 ppm (Myzus persicae; [4]) was 10% and the mortality at 0.8 ppm (Myzus persicae; [4]) was 70%. The mortality at 0.16 ppm (Myzus persicae; [5]) was 30% and the mortality at 0.8 ppm (Myzus persicae; [5]) was 55%.
In the case of `CON=C(C(=O)OC)c1ccccc1CON=C(C)c1cccc(C(F)(F)F)c1` [Trifloxystrobin, trifloxystrobin], the mortality at 200 ppm (Myzus persicae; [5]) is reported as 20%.
`O=[N+]([O-])NC1=NCCN1Cc1ccc(Cl)nc1` [Imidacloprid, imidacloprid] gave a mortality at 4 ppm [1, 2] of 35%, an Efficacy in % (Gibberella zeae) of 22% and a mortality at 0.16 ppm (Myzus persicae; [4]) of 30%.
`CC(C)(C)C(O)C(Oc1ccc(Cl)cc1)n1cncn1` (stereo not shown) [Triadimenol, triadimenol] gave a mortality at 0.4 ppm ([1]; Phaedon cochleariae, in Brassica oleracea, foliar, 144 h, read-out: Mortality in % after 6d, dose 0.4 ppm, after 6 d) of 0% and a mortality at 200 ppm (Myzus persicae; [4]) of 10%.
Work on `N#Cc1c[nH]cc1-c1cccc2c1OC(F)(F)O2` [Fludioxonil, fludioxonil] yielded a mortality at 200 ppm [1, 6] of 5% and a mortality at 200 ppm (Myzus persicae; [4]) of 0%.
With spinosad the Efficacy in % (Phytophthora cryptogea) was 5% and the “Mortality in % after 4d” value ([1]; dose 0.8 ppm, after 4 d) was 50%.
With `CC(C)(C)C(O)(CCc1ccc(Cl)cc1)Cn1cncn1` (stereo not shown) [Tebuconazole, tebuconazole] the mortality at 200 ppm (Myzus persicae; [5]) was 0%.
In the case of `CCOP(=O)(NC(C)C)Oc1ccc(SC)c(C)c1` (stereo not shown) [Fenamifos, fenamifos], the “Mortality in % after 6d” value ([1]; dose 20 ppm, after 6 d) is reported as 75%.
`Nc1nc(N)nc(NC2CC2)n1` [Cyromazine, cyromazine] was tested, and the mortality at 20 ppm ([1]; Phaedon cochleariae, in Brassica oleracea, foliar, 144 h, read-out: Mortality in % after 6d, dose 20 ppm, after 6 d) was 5%.
Work on `N#Cc1nn(-c2c(Cl)cc(C(F)(F)F)cc2Cl)c(N)c1[S+]([O-])C(F)(F)F` (stereo not shown) [Fipronil, fipronil] yielded a mortality at 100 ppm (Aphis gossypii; dose 100 ppm) of 40%.
In the case of “5-fluoro-1,3-dimethyl-N-[2-(1,3-dimethyl)-but-2-ol-yl]-1H-pyrazole-4-carboxamide [Compound A]”, the “Mortality in % after 4d” value ([1]; dose 200 ppm, after 4 d) is reported as 0%.
For `N#C/N=C1\SCCN1Cc1ccc(Cl)nc1` [Thiacloprid, thiacloprid], the mortality at 4 ppm [1, 3] was 25%.
`O=C(NCCc1ncc(C(F)(F)F)cc1Cl)c1ccccc1C(F)(F)F` [Compound 1, N-{2-[3-chloro-5-(trifluoromethyl)-2-pyridinyl]ethyl}-2-trifluoromethylbenzamide] was tested, and the Efficacy in % (Phytophthora cryptogea) was 13%, the mortality at 200 ppm (Aphis gossypii; dose 200 ppm) was 10% and the mortality at 1 ppm [1, 7] was 0%. The mortality at 0.2 ppm ([1]; Phaedon cochleariae, in Brassica oleracea, foliar, 144 h, read-out: Mortality in % after 6d, dose 0.2 ppm, after 6 d) was 0%, the mortality at 200 ppm [1, 6] was 0% and the “Mortality in % after 4d” value ([1]; dose 200 ppm, after 4 d) was 5% and 15%. The Efficacy in % (Gibberella zeae) was 41%, the mortality at 20 ppm (Myzus persicae; 24 h, dose 20 ppm, after 1 d) was 0% and the mortality at 200 ppm (Myzus persicae; [4]) was 0%. For the same compound, the mortality at 200 ppm (Myzus persicae; [5]) was 0%.
Work on `CC(C)C1CCC(Cc2ccc(Cl)cc2)C1(O)Cn1cncn1` (stereo not shown) [Ipconazole, ipconazole] yielded a mortality at 200 ppm (Myzus persicae; [4]) of 0%.
With `OC(Cc1ccccc1Cl)(Cn1nc[nH]c1=S)C1(Cl)CC1` (stereo not shown) [Prothioconazole, prothioconazole] the mortality at 1 ppm [1, 7] was 0%, the mortality at 200 ppm ([1]; Phaedon cochleariae, in Brassica oleracea, foliar, 96 h, read-out: Mortality in % after 4d, dose 200 ppm, after 4 d) was 0% and the Efficacy in % (Pyricularia oryzae) was 12%. For the same compound, the mortality at 200 ppm (Myzus persicae; [5]) was 0%.
`CC1=NNC(=O)N(/N=C/c2cccnc2)C1` [Pymetrozine, pymetrozine] showed a mortality at 0.8 ppm (Myzus persicae; [4]) of 30%.
